Laboratory results: patent publication US9750689B2, “Transdermal silicone gel (silogel) compositions and methods of preparation” (Humco Holding Group, Inc., priority 2013, dated 2017)
Like-named read-outs stand apart in the source and are kept apart here.

Assay: Percutaneous absorption testing (percent of applied dose that penetrated past the stratum corneum)
Excerpt: See Jorge, L., et al., Journal of Pain Research, Topical Preparations for Pain Relief—Efficacy and Patient Adherence, Vol. 4, No. 11-24, 2011.

[1] = 2 Hours, eight drugs dissolved together in Salt-Stable LS Advanced
[2] = 4 Hours, eight drugs dissolved together in Salt-Stable LS Advanced
[3] = 8 Hours, eight drugs dissolved together in Salt-Stable LS Advanced
[4] = 12 Hours, eight drugs dissolved together in Salt-Stable LS Advanced
[5] = 24 Hours, eight drugs dissolved together in Salt-Stable LS Advanced
[6] = 32 Hours, eight drugs dissolved together in Salt-Stable LS Advanced
[7] = 48 Hours, eight drugs dissolved together in Salt-Stable LS Advanced

| Compound | Percutaneous Absorption Testing, 2 Hours (2 h) | Percutaneous Absorption Testing, 4 Hours (4 h) | Percutaneous Absorption Testing, 8 Hours (8 h) | Percutaneous Absorption Testing, 12 Hours (12 h) | Percutaneous Absorption Testing, 24 Hours (24 h) | Percutaneous Absorption Testing, 32 Hours (32 h) | Percutaneous Absorption Testing, 48 Hours (48 h) | also measured |
| --- | --- | --- | --- | --- | --- | --- | --- | --- |
| NCC1(CC(=O)O)CCCCC1 [Gabapentin] |  |  |  |  |  |  |  | Percutaneous Absorption Testing, 2 Hours [1]: 0%; Percutaneous Absorption Testing, 4 Hours [2]: 0%; Percutaneous Absorption Testing, 8 Hours [3]: 1%; Percutaneous Absorption Testing, 12 Hours [4]: 2%; Percutaneous Absorption Testing, 24 Hours [5]: 2%; Percutaneous Absorption Testing, 32 Hours [6]: 3%; Percutaneous Absorption Testing, 48 Hours [7]: 3% |
| CC(=O)CCCCn1c(=O)c2c(ncn2C)n(C)c1=O [Pentoxifylline] | 3% | 7% | 26% | 34% | 53% | 71% | 71% |  |
| CCCCN1CCCCC1C(=O)Nc1c(C)cccc1C (stereo not shown) [Bupivacaine] | 0% | 1% | 1% | 2% | 3% | 4% | 4% |  |
| NCC(CC(=O)O)c1ccc(Cl)cc1 (stereo not shown) [Baclofen] | 0% | 1% | 2% | 3% | 4% | 5% | 6% |  |
| CN(C)CCC=C1c2ccccc2C=Cc2ccccc21 [Cyclobenzaprine] | 0% | 2% | 3% | 5% | 7% | 8% | 10% |  |
| O=C(O)Cc1ccccc1Nc1c(Cl)cccc1Cl [Diclofenac] | 0% | 1% | 4% | 4% | 7% | 10% | 10% |  |
| CC(C)Cc1ccc(C(C)C(=O)O)cc1 (stereo not shown) [Ibuprofen] |  |  |  |  |  |  |  | Percutaneous Absorption Testing, 2 Hours: 5%; Percutaneous Absorption Testing, 4 Hours: 8%; Percutaneous Absorption Testing, 12 Hours: 20%; Percutaneous Absorption Testing, 24 Hours: 30%; Percutaneous Absorption Testing, 32 Hours: 39%; Percutaneous Absorption Testing, 48 Hours: 39% |
| CNC1(c2ccccc2Cl)CCCCC1=O (stereo not shown) [Ketamine] |  |  |  |  |  |  |  | Percutaneous Absorption Testing, 2 Hours [1]: 4%; Percutaneous Absorption Testing, 4 Hours [2]: 7%; Percutaneous Absorption Testing, 8 Hours [3]: 20%; Percutaneous Absorption Testing, 12 Hours [4]: 25%; Percutaneous Absorption Testing, 24 Hours [5]: 38%; Percutaneous Absorption Testing, 32 Hours [6]: 51%; Percutaneous Absorption Testing, 48 Hours [7]: 51% |
